We go through six compounds from patent US12110289B2, “Heterocyclic compounds, preparation methods and uses thereof” (InventisBio Co., Ltd., priority 2020, dated 2024).

Series [1] deals with Lung cancer cell line NCI-H358 containing KRas G12C mutation. The experiment in a line: Assay for cell proliferation (Cell-titer Glo, 5 days). Format: cell-based, human. To be noted: for IC50: Homo sapiens, NCI-H358, 120 h, read-out: IC50 (nM), Inhibition of NCI-H358 Cell Proliferation. In a few lines: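 NCI-H358 (KRas G12C) cells, 2000 per well, attached overnight at 37 °C, 5% CO2, then treated with compound for 5 days at 0.5% DMSO final. Proliferation measured by CellTiter-Glo luminescence after 10 min at RT.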

Series [2] has as its system pooled human hepatocytes. The experiment in a line: Human hepatocyte clearance study. To be noted: for Human Hepatocyte Remaining Percentage @ 120 min (%): working cell density 2 × 10^6 viable cells/mL. Type of series: in vitro ADME. As for the experimental part: (§1) The in vitro human hepatocyte clearance of compounds described here was studied using pooled human hepatocytes purchased from BioreclamationIVT (Westbury, NY, Cat #X008001, Lot #TQJ). The assay was conducted according to manufacturer's instruction. Briefly, 10 mM stock solutions of test compounds and positive control (Verapamil) were prepared in 100% DMSO. Thawing media (50 mL) used in the study consists of 31 mL Williams E medium (GIBCO Cat #12551-032), 15 mL isotonic percoll (GE Healthcare Cat #17-0891-09), 500 uL 100× GlutaMax (GIBCO Cat #35050), 750 uL HEPES (GIBCO Cat #15630-080), 2.5 mL FBS (Corning Cat #35-076-CVR), 50 uL human insulin (GIBCO Cat #12585-014) and 5 uL dexamethasone (NICPBP). Incubation media is made of Williams E medium supplemented with 1× GlutaMax. Both thawing medium and incubation medium (serum-free) were placed in a 37° C. water bath for at least 15 minutes prior to use. Compound stock solutions were diluted to 100 μM by combining 198 μL of 50% acetonitrile/50% water and 2 μL of 10 mM stock solution. Verapamil was use as positive control in the assay. Vials of cryopreserved hepatocytes were removed from storage and thawed in a 37° C. water bath with gentle shaking. Contents of the vial were poured into the 50 mL thawing medium conical tube. Vials were centrifuged at 100 g for 10 minutes at room temperature. […] […] […] The boiled hepatocytes were used to prepare negative samples. Aliquots of 198 μL hepatocytes were dispensed into each well of a 96-well non-coated plate. The plate was placed in the incubator on an orbital shaker at 500 rpm for approximately 10 minutes. Aliquots of 2 μL of the 100 μM test compound or positive control were added into respective wells of the non-coated 96-well plate to start the reaction. This assay was performed in duplicate. The plate was incubated in the incubator on an orbital shaker at 500 rpm for the designated time points. Twenty-five microliter of contents were transferred and mixed with 6 volumes (150 μL) of cold acetonitrile with IS (200 nM imipramine, 200 nM labetalol and 200 nM diclofenac) to terminate the reaction at time points of 0, 15, 30, 60, 90 and 120 minutes. Samples were centrifuged at 3,220 g for 25 minutes and aliquots of 150 μL of the supernatants were used for LC-MS/MS analysis. For data analysis, all calculations were carried out using Microsoft Excel. Peak areas were determined from extracted ion chromatograms. The in vitro half-life (t1/2) of parent compound was determined by regression analysis of the percent parent disappearance vs. time curve. […] Scaling factors for in vivo intrinsic clearance prediction using human hepatocytes are listed as: liver weight (g liver/kg body weight): 25.7; hepatocyte concentration (10^6 cells/g liver): 99; scaling factor: 2544.3.

The nature of series [3]: Human hepatocyte clearance study. Format: in vitro ADME. To be noted: human, pooled cryopreserved human hepatocytes (suspension), working cell density 2 × 10^6 viable cells/mL; for hepatocyte CLint at 1 µM: read-out: Human In vitro Clint (μl/min/10^6 cells); for half-life at 1 µM: read-out: Human In vitro T1/2; for CLint scaled at 1 µM: read-out: Human Scale-up Clint. As for the experimental part:
as §1

The subject of series [4] is NCI-H358 xenograft. The experiment in a line: NSCLC H358 xenograft model, tumor volume. Type of series: in vivo, BALB/c nude mice. Here is the method:
(§2) All the procedures related to animal handling, care and the treatment in this study were performed according to the guidelines approved by the Institutional Animal Care and Use Committee (IACUC) of SIPPER B&K following the guidance of the Association for Assessment and Accreditation of Laboratory Animal Care (AAALAC). At the time of routine monitoring, the animals were checked for any effects of tumor growth on normal behavior such as mobility, food and water consumption (by looking only), body weight gain/loss (body weights were measured twice weekly), eye/hair matting and any other abnormal effect. Death and observed clinical signs were recorded on the basis of the numbers of animals within each subset.
(§3) The NCI-H358, SW837, NCI-H2122 tumor cells were purchased from the American Type Culture Collection (ATCC). Cells were maintained in vitro as monolayer cultured in RPMI-1640 or DMEM medium supplemented with 10% fetal bovine serum, 50 IU/ml penicillin/streptomycin (GIBCO) at 37° C. in an atmosphere of 5% CO2 in air. The tumor cells were routinely sub cultured twice weekly by trypsin-EDTA treatment. The cells growing in an exponential growth phase were harvested and counted for tumor inoculation.
(§4) For tumor bearing models, female 6- to 8-week-old athymic BALB/c nude mice were used for human cancer cell lines. Each mouse was inoculated subcutaneously at the right flank with tumor cells (10×10^6) in 0.1 ml of PBS. The treatments were started when the average tumor size reached approximately 200-250 mm^3. Carboplatin, Cisplatin was injected twice a week by i.p. Vehicles and other test articles were given orally as a suspension by gavage once daily during the study or treatment period.
(§5) Tumor volume was calculated by measuring two perpendicular diameters using the following formula: (L×W 2)/2 in which L and W refer to the length and width tumor diameter, respectively. Results are expressed as mean and standard deviation of the mean.

Series [5] in a line: Rat PK study, single i.g. dose. Type of series: in vivo. To be noted: female, SD, plasma, PO, 10 mg/kg. As for the experimental part: The pharmacokinetic (PK) profile of compounds following single i.g in SD rat obtained from […] Laboratory Animal Co., LTD of Shanghai was determined. Three female rats of weight around 220 g were used. Compounds were prepared at 1 mg/ml with the formulation of 10% DMSO+10% solutol HS15+80% (10% HPβCD in water). Blood samples (0.2 mL) were collected at 0 h (pre-dose) and 0.25, 0.5, 1, 2, 4, 8, 24 h time points after administration of compounds at the dose of 10 mg/kg. The collected blood samples were centrifuged without delay and the plasma was separated and transferred into tubes before storage at -70° C. prior to analysis. Aliquots of the plasma unknowns, blank and calibration standards were placed in 1.5 mL tubes and mixed with acetonitrile/methanol (1/1, v/v) containing IS. After vortexing for 5 min, each sample was centrifuged at 14000 rpm at 4° C. for 10 min. The supernatant were injected into the LC-MS/MS system. […] Eluates were analyzed using an API4000 Q-Trap mass spectrometer with a TurboIonSpray interface. Chromatographic separation was done with a mobile phase composed of water with 0.1% formic acid (solution A) and acetonitrile with 0.1% formic acid (solution B). The mobile phase was delivered at a flow rate of 0.6 mL/min, using a stepwise gradient elution program. To improve the sensitivity of the test compound screening, a MRM method in positive electrospray ionization mode was employed. Mass spectrometry data was acquired and analyzed using AB Sciex Analyst version 1.6.2 software. The pharmacokinetic parameters were derived using standard noncompartmental methods with Phoenix WinNonLin Professional Version 8.1.

For series [6], the system named is SW837 xenograft. Kind of series: Colorectal adenocarcinoma SW837 xenograft model, tumor volume. Format: in vivo, BALB/c nude mice. As for the experimental part: as §2, §3, §4, §5
Setting [7] is: NCI-H358, 5 days, Cell-titer Glo.

Like-named read-outs stand apart in the source and are kept apart here.

For `C=CC(=O)N1C[C@H](C)N(c2nc(=O)n(-c3c(F)cc4c(ncn4C)c3C(C)C)c3nc(-c4c(N)cccc4F)c(F)cc23)C[C@H]1C` (atropisomer, axis not shown) [Compound 145], the IC50 in series [1] (setting [7]) worked out at 1.4 nM. Besides, the “Human Hepatocyte Remaining Percentage @ 120 min (%)” value in series [2] is recorded as 82.9%. In series [3], the hepatocyte CLint at 1 µM stood at 1 µL/min/1e6 cells, the half-life at 1 µM was determined as 11.5 h and the CLint scaled at 1 µM was determined as 2.6 mL/min/kg. In addition, the “reduction of tumor volume, combined treatment vs either agent alone” value in series [4] (Compound 145 at 5 mg/kg combined with carboplatin at 30 mg/kg, FIG. 4) is reported as “much better reduction of tumor volume”.

Take `C=CC(=O)N1C[C@H](C)N(c2nc(=O)n(-c3c(C4CC4)ncnc3C3CC3)c3nc(-c4c(N)cccc4F)c(F)cc23)C[C@H]1C` [Compound 44]: the AUC(0-t) in series [5] (read-out: Rat PO (10 mpk) AUC last) is 4.3 µM·h. Also, the Cmax (usually the peak of the concentration-time curve) in series [5] (read-out: Rat PO (10 mpk) Cmax) amounted to 1380 nM. Further, the bioavailability in series [5] (read-out: Rat PO (10 mpk) F %) was 71%. Besides, in series [1], the “potency in inhibiting KRAS G12C compared with corresponding isopropyl analogs” value is “better potency” and the IC50 was found to be 2.1 nM. The “fold more potent: 2-amino-6-fluoro-phenyl compound vs. corresponding 2-fluoro-phenyl compound at R8” value in series [1] (NCI-H358 IC50 comparison) is on record as “about 19 ×”. Further, in series [2], the “human hepatocyte clearance profile compared to control compounds” value is “better human hepatocyte clearance profile” and the “Human Hepatocyte Remaining Percentage @ 120 min (%)” value is recorded as 61.7%. Further, in series [3], the hepatocyte CLint at 1 µM stood at 4 µL/min/1e6 cells, the half-life at 1 µM stood at 2.87 h and the CLint scaled at 1 µM is 10.2 mL/min/kg. Also, in series [4] (30 mg/kg oral once daily vs AMG510 at 30 mg/kg, FIG. 2), the “reducing tumor volume compared with AMG510” value is recorded as “more effective than AMG510”. In series [6] (60 mg/kg oral once daily vs AMG510 at 60 mg/kg, FIG. 1), the “reducing tumor volume compared with AMG510” value is on record as “more effective than AMG510”. Moreover, the “reduction of tumor volume, combined treatment vs either agent alone” value in series [6] (Compound 44 at 30 mg/kg combined with trametinib at 1 mg/kg, FIG. 6) is reported as “much better reduction of tumor volume”.

On to `C=CC(=O)N1CCN(c2nc(=O)n(-c3c(C4CC4)ncnc3C3CC3)c3nc(-c4c(N)cccc4F)c(Cl)cc23)[C@@H](C)C1` [Compound 124], for which the IC50 in series [1] (setting [7]) stood at 2.4 nM. In series [2], the “Human Hepatocyte Remaining Percentage @ 120 min (%)” value is 37.5%. Also, in series [3], the hepatocyte CLint at 1 µM came out at 8.5 µL/min/1e6 cells, the half-life at 1 µM is 1.35 h and the CLint scaled at 1 µM worked out at 21.7 mL/min/kg.

`C=CC(=O)N1CCN(c2nc(=O)n(-c3c(C4CC4)ncnc3C3CC3)c3nc(-c4c(O)cccc4F)c(Cl)cc23)[C@@H](C)C1` [Compound 125]: the IC50 in series [1] (setting [7]) came out at 6.1 nM. The “Human Hepatocyte Remaining Percentage @ 120 min (%)” value in series [2] is on record as 16.5%. Also, in series [3], the hepatocyte CLint at 1 µM is 14.5 µL/min/1e6 cells, the half-life at 1 µM came out at 0.8 h and the CLint scaled at 1 µM came to 36.8 mL/min/kg.

For `C=CC(=O)N1C[C@H](C)N(c2nc(=O)n(-c3c(C4CC4)ncnc3C3CC3)c3nc(-c4c(O)cccc4F)c(Cl)cc23)C[C@H]1C` [Compound 127], the IC50 in series [1] (setting [7]) is 3.5 nM. Besides, in series [2], the “Human Hepatocyte Remaining Percentage @ 120 min (%)” value was 55.5%. In series [3], the hepatocyte CLint at 1 µM came out at 4.4 µL/min/1e6 cells, the half-life at 1 µM is 2.64 h and the CLint scaled at 1 µM came out at 11.1 mL/min/kg.

Regarding `C=CC(=O)N1C[C@H](C)N(c2nc(=O)n(-c3c(C4CC4)ncnc3C3CC3)c3nc(-c4ccccc4F)c(Cl)cc23)C[C@H]1C` [Compound 128], the IC50 in series [1] (setting [7]) came out at 8.7 nM. For the same compound, the “Human Hepatocyte Remaining Percentage @ 120 min (%)” value in series [2] is reported as 39.9%. In series [3], the hepatocyte CLint at 1 µM worked out at 10.3 µL/min/1e6 cells, the half-life at 1 µM is 1.12 h and the CLint scaled at 1 µM was determined as 26.1 mL/min/kg.
